Consider two molecules from patent publication US11124515B2, “Adenosine receptor antagonists and uses thereof” (Teon Therapeutics, Inc., priority 2018, dated 2021).

This series can be described thus: Pharmacokinetic study in Sprague Dawley rats, single oral dose, plasma LC/MS/MS. Type of series: in vivo. As to conditions: suspension in 0.5% methylcellulose in water. Here is the method: Pharmacokinetic studies were carried out in Sprague Dawley rats. Exemplary compounds were administered orally by gavage to groups of three rats using a single oral dose of 5 mg/kg. Each oral dose was prepared as a suspension in 0.5% methylcellulose in water. Blood samples were obtained serially from each rat at 0, 15, 30 min, and then 1, 2, 4, 8, and 24 hrs post dose.
Concentrations of an administered compound and the corresponding metabolite (Compound 1) in rat plasma were determined by a HPLC tandem mass spectrometric (LC/MS/MS) method. 50 μL Plasma PPT by ISTD in MeOH/Acetonitrile (1:1, v/v). 200 μL of 5 ng/mL Terfenadine and Buspirone was added to in MeOH/Acetonitrile (1:1, v/v) and mixed well. […]
Quantification of compounds were achieved by mass spectrometry using Multiple Reaction Monitoring (MRM) mode, monitoring the transitions specific to each exemplary compound and 447.34>405.20 for Compound 1. The quantification limit of the assay was 10 ng/mL for Compound 1.
Non-compartmental pharmacokinetic parameters were determined using a commercial program WinNonLin Professional, Version 8.0 (Pharsight, Mountain View, Calif.). […]
For oral administration, t½ (hr), tmax (hr), Cmax (ng/mL), AUClast (hr*ng/mL), AUCInf (hr*ng/mL), AUC Extr (%), MRTInf (hr), Cmax Ratio (Parent/Pro), AUClast Ratio (Parent/Pro) were determined.

Consider `CCCn1c(=O)c2[nH]c(-c3cnn(Cc4cccc(C(F)(F)F)c4)c3)nc2n(CC)c1=O` [Compound 1, 8-(1-(3-(Trifluoromethyl)benzyl)-1H-pyrazol-4-yl)-3-ethyl-1-propyl-1H-purine-2,6(3H,7H)-dione], for which, for the setting “rat, Compound 1, single oral dose of 5 mg/kg, read-out: AUC (AUClast)”, the AUC(0-t) is below 30000 ng·h/mL.
For `CCCC(=O)OCn1c(-c2cnn(Cc3cccc(C(F)(F)F)c3)c2)nc2c1c(=O)n(CCC)c(=O)n2CC` [Compound E, (3-ethyl-2,6-dioxo-1-propyl-8-(1-(3-(trifluoromethyl)benzyl)-1H-pyrazol-4-yl)-1,2,3,6-tetrahydro-7H-purin-7-yl)methyl butyrate], where the note is “compounds of Formula (B), single oral dose of 5 mg/kg”, the “AUC (AUClast)” value is listed as “α or β”.
